Experimental data taken from US10806711B2 (priority 2011, dated 2020).
Entries after “also recorded” stand apart in the source; their conditions may differ.

Assays:
[1] = system: HL-1 cells; assay type: cell-based
Experimental: Cell Viability Assays—Cell viability was assessed using the ApoTox-Glo Triplex Assay (Promega, Madison, Wis.) per manufacturer's instructions. Briefly, HL-1 cells were seeded in 96 well plates at a density of 1×10^4 cells/well and allowed to grow overnight in Claycomb media supplemented with 10% FBS, 100 U/ml penicillin/streptomycin, and 2 mM L-glutamine. […] GF-AFC viability was then added to ApoTox-Glo Assay Buffer at a ratio of 10 μl GF-AFC to 2.0 ml Assay Buffer and 20 μl of this mixture was added to each well and cells were incubated at 37° C. for 30 minutes. Fluorescence was measured at 400 nm (ex)/505 nm (em) and the data was normalized to untreated control cells.

[2] = system: isolated ventricular myocytes; assay: Myocyte Ca2+ transient and cytosolic Ca2+ measurement; assay type: cell-based, mouse
Experimental: Isolation of ventricular myocytes—Hearts from WT mice (12-week old) were perfused on the Langendorff system with a modified Krebs-Henseleit buffer (KHB) composed of (mM) NaCl 118, KCl 5.4, HEPES 10, NaH2PO4 0.33, MgCl2 2, glucose 10, taurine 30, butanedione monoxime 10 (pH=7.4). Then an enzyme solution (KHB containing 0.7 mg/ml type II collagenase, 0.1% BSA and 25 μM CaCl2) was used to digest the hearts for 10 min. Finally, ventricles of the hearts were excised, minced and filtered to obtain isolated cells. After sufficient sedimentation, the supernatant was removed and the cells were resuspended.
Myocyte Ca^2+ transient and cytosolic Ca^2+ measurement—Myocytes were loaded with Fluo-4 acetoxymethyl ester (7 μM) for 20 min at room temperature, followed by a 10 min wash with Tyrode's solution, and then placed onto a plexiglass chamber for recording. For Ca^2+ transient measurements, myocytes were excited under 0.5 Hz and 3 Hz field stimulation, and the fluorescence signals were obtained using a Nikon TE 2000 microscope and collected through an InCyt Standard photometry system. For cytosolic Ca^2+ analysis in quiescent myocytes, a Zeiss LSM 510 confocal microscope was used to record fluorescent images from resting myocytes. Line-scan mode was applied at 3.07 ms intervals with 512 pixels spaced at 0.056 μm. Drugs were dissolved in Tyrode's solution and perfused into the chamber. Images of myocytes were recorded every 30 s after drug application. Data analysis was performed using Clampfit 9.2 and Image J 1.44 software.
Water soluble probenecid was used for all of the myocyte experiments.

[3] = system: isolated ventricular myocytes; assay: Myocyte contractility measurement; assay type: cell-based, mouse; conditions: ruthenium red pretreatment, 10^−7 M probenecid
Experimental: Isolation of ventricular myocytes—Hearts from WT mice (12-week old) were perfused on the Langendorff system with a modified Krebs-Henseleit buffer (KHB) composed of (mM) NaCl 118, KCl 5.4, HEPES 10, NaH2PO4 0.33, MgCl2 2, glucose 10, taurine 30, butanedione monoxime 10 (pH=7.4). Then an enzyme solution (KHB containing 0.7 mg/ml type II collagenase, 0.1% BSA and 25 μM CaCl2) was used to digest the hearts for 10 min. Finally, ventricles of the hearts were excised, minced and filtered to obtain isolated cells. After sufficient sedimentation, the supernatant was removed and the cells were resuspended. Myocyte contractility measurement—Myocytes were put on a plexiglass chamber containing a Tyrode's solution composed of (mM) NaCl 140, KCl, 5.4, MgCl2 1, CaCl2 1.8, HEPES 5, glucose 10 (pH=7.4). Myocytes were excited under 0.5 Hz field stimulation. After reaching the steady state, myocyte shortening and the rates of shortening (+dL/dt) and relengthening (−dL/dt) were imaged with a CCD camera and monitored by a video-edge detector. Drugs were dissolved in Tyrode's solution and perfused into the chamber. Data were continuously collected through the PCLAMP 9 software. Water soluble probenecid was used for all of the myocyte experiments.

`CC(C)NCC(O)c1ccc(O)c(O)c1` (stereo not shown) [isoproterenol] was tested, and the “cell death at 24 hours, compared with H2O2 positive control” value ([1]; 1.0 mM, 24 hours) was “substantial cell death; also recorded: indistinguishable from H2O2 positive controls”, the cells still viable ([1]; 1.0 mM, 24 hours) was “less than 20%” and the cell death ([1]; 1.0 mM, after 4 and 8 hours of treatment) was “significant amount of cell death”. The “cell death in HL-1 cells (Example 3 summary)” value ([1]; probenecid at supraphysiological, isoproterenol at clinically relevant concentrations) was “increased cell death”.
With `C/C=C(/C)C(=O)O[C@H]1C(C)=C2[C@H]([C@@H]1OC(=O)CCCCCCC)[C@@](C)(OC(C)=O)C[C@H](OC(=O)CCC)[C@@]1(O)[C@H]2OC(=O)[C@@]1(C)O` [thapsigargin] the “effect on the change in cytosolic Ca2+ by probenecid” value ([2]; thapsigargin 10^−6 M pretreatment 15 minutes, 10^−7 M probenecid) was “abolished”.
With `N.N.N.N.N.N.N.N.N.N.N.N.N.N.[Cl-].[Cl-].[Cl-].[Cl-].[Cl-].[Cl-].[O-2].[O-2].[Ru+3].[Ru+3].[Ru+4]` [ruthenium red] the “effect of pretreatment on probenecid's effect on myocyte contractility” value [3] was “completely abolished” and the “effect on the increase of cytosolic Ca2+ by probenecid” value ([2]; ruthenium red 1 μM applied, 0.1 μM probenecid) was “fully blocked”.
